In data set [1] the test system is HCT116^+/+. Description: Antiproliferative assay (MTS, 72 h) on HCT116 wild type. As to conditions: MTS, 72 h incubation, read-out: Activity IC50 HCT116^+/+. The format is cell-based, human. As for the experimental part: (§1) All of the synthesized compounds were tested for their antiproliferative activity against human colon cancer (Table 1). We used both the wild-type and p53-negative cell lines (HCT116^+/+ and HCT116^−/−, respectively). Mutations in the TP53 gene are present in more than 50% of all cancers and often specifically correspond to a difficult therapy, resistance or a bad prognosis[60]–[63]. The active compounds were additionally tested for their cytotoxicity against normal human fibroblasts. We used 5-fluorouracil (5-FLU), doxorubicin (DOX) and CP-31398 as the standards. 5-FLU is one of the first antimetabolites that was dedicated for cancer treatment and is still used for a wide range of cancers including colon carcinoma. Doxorubicin is a DNA topoisomerase II poison with a high intercalating potency, which is able to induce apoptosis through the p53 pathway. Although DOX has been described as being ineffective in some p53 mutants, its level of activity against the p53 null lines is similar. CP-31398, on the other hand, is an experimental drug in the clinical phase and its mechanism of action is through the reactivation some of p53 mutants. Its activity against the p53 null cell lines is greatly diminished and is actually lower than its cytotoxicity.
(§2) The human colon cancer cell line HCT116 wild type was obtained from ATCC and the normal human fibroblast cell lines NHDF were obtained from PromoCell. The human colon cancer cell line HCT116 with a p53 deletion (p53^−/−) was kindly provided by Prof. M. Rusin from the Maria Sklodowska-Curie Memorial Cancer Centre and Institute of Oncology in Gliwice, Poland[89]. The cells were grown as monolayer cultures in Dulbecco’s modified Eagle’s medium with the antibiotic gentamicin (200 μL/100 mL medium) in 75 cm^2 flasks (Nunc). The DMEM for the HCT116 were supplemented with 12% heat-inactivated fetal bovine serum (Sigma-Aldrich, St. Louis, MO, USA) and for NHDF with 15% non-inactivated fetal bovine serum (Sigma Aldrich, St. Louis, MO, USA). The cells were cultured under standard conditions at 37 °C in a humidified atmosphere at 5% CO2.
(§3) The cells were seeded in 96-well plates (Nunc) at a density of 5,000 cells/well (HCT116) and 4,000 cells/well (NHDF) and incubated at 37 °C for 24 h. The assay was performed following a 72 h incubation with varying concentrations of the compounds that were being tested. Then, 20 µL of CellTiter 96® AQueous One Solution-MTS (Promega) was added to each well (with 100 µL DMEM without phenol red) and incubated for 1 h at 37 °C. The optical densities of the samples were analyzed at 490 nm using a Synergy 4 multi-plate reader (BioTek, Winooski, VT, USA). The results are expressed as the percentage of the control and were calculated as the inhibitory concentration (IC50) values (using a GraphPad Prism 7). The IC50 parameter was defined as the compound concentration that was necessary to reduce the proliferation of cells to 50% of the untreated control. Each individual compound was tested in triplicate in a single experiment with each experiment being repeated three or four times.

In data set [2] the test system is HCT116^−/−. The experiment in a line: Antiproliferative assay (MTS, 72 h) on HCT116 with p53 deletion. The format is cell-based, human. The conditions noted are these: for IC50: MTS, 72 h incubation. As for the experimental part:
as §1, §2, §3

Data set [3] concerns NHDF. Description: Cytotoxicity (MTS, 72 h) against normal human fibroblasts. Format: cell-based. The conditions noted are these: MTS, 72 h incubation. As for the experimental part:
as §1, §2, §3

Data set [4] has as its system CT-DNA. The experiment in a line: Spectrophotometric DNA intercalation assay. As to conditions: for % hypochromism / Δε: bound to CT-DNA. The format is binding, calf. The source says:
The fused aromatic rings of the naphthalene moiety and halogen substituents in aniline may guarantee good intercalating properties[71],[72]. On the other hand, the intercalation of DNA may explain the high activity against both the wild-type and p53 mutants as was reported for a series of styrylquinolines. Binding to DNA causes the bases to mismatch or cleave, which results in the arrest of the cell cycle and apoptosis. The effectiveness of the p53 system is one of the most important factors in the response to therapy. We tested the intercalating properties of the selected compounds in a spectrophotometric assay on calf-thymus DNA. The absorption spectra of the tested compounds in the absence and presence of CT-DNA are presented in Figure S1 Supplementary Information and the spectral properties with doxorubicine and CP-31398 are summarized in Table 2.
For the DNA binding studies, Calf-thymus DNA (CT-DNA) was purchased from Sigma- Aldrich. The lyophilized CT-DNA was dissolved in 10 mM Tris-HCl, pH 7.9, mixed gently and left overnight at 4 °C. The purity of the CT-DNA solution was determined by measuring the ratio of UV absorbance at 260 and 280 nm. […] Then, the concentration of CT-DNA was determined from the absorbance at 260 nm using an extinction coefficient of 6600 M^−1cm^−1. The tested compounds including DOX and CP-31398 were dissolved to a concentration of 8.35 mM in DMSO, which was then used as the stock solution for preparing the various concentrations (25, 12.5, 6 and 3 µM) in 1 mL in 10 mM of Tris-HCl (pH 7.9). Afterwards, 18 µM CT-DNA was added to the prepared solutions, which were incubated for 1.5 h at 37 °C with occasional vortexing. The absorption spectra were measured using a Hitachi U-2900 spectrophotometer in the range of 200–500 nm. All absorption spectra were imported into OriginPro 8.0 and compared.

Where [5] appears, read: for CP-31398 first value (312 nm band).

The source of these data is article PMC6476888, “Design and synthesis of anticancer 1-hydroxynaphthalene-2-carboxanilides with a p53 independent mechanism of action” (Scientific Reports, 2019).

Read-outs that look alike come from different tables or passages of the source.

As a reminder, the melting point is the temperature of the solid-liquid transition. As for `O=C(Nc1ccc(Cl)cc1F)c1ccc2ccccc2c1O` [4q], the melting point lay within 163 to 165 °C. Besides, the IC50 in data set [1] (Homo sapiens, HCT-116) was determined as 9.89 ± 3.26 µM. Also, in data set [2] (Homo sapiens, HCT-116), the IC50 was 9.69 ± 3.13 µM. For the same compound, in data set [3] (Homo sapiens, NHDF), the IC50 is more than 25 µM.
Regarding `O=C(Nc1ccc(Br)cc1F)c1ccc2ccccc2c1O` [4r], the melting point lay within 172 to 174 °C. In addition, the IC50 in data set [1] (Homo sapiens, HCT-116) amounted to 15 ± 4.82 µM. Besides, the “selectivity towards the p53 null cells (HCT116 p53^−/− vs wild type)” value in data set [2] is recorded as “roughly 4.5 fold”. The IC50 in data set [2] (Homo sapiens, HCT-116) is 3.43 ± 0.69 µM. Besides, the IC50 in data set [3] (Homo sapiens, NHDF) is more than 25 µM.
In the case of `O=C(Nc1cc(Cl)ccc1F)c1ccc2ccccc2c1O` [4s], the melting point was in the range of 169 to 171 °C. In addition, the IC50 in data set [1] (Homo sapiens, HCT-116) stood at 8.66 ± 1.61 µM. Moreover, the IC50 in data set [2] (Homo sapiens, HCT-116) stood at 10.7 ± 1.73 µM. Besides, in data set [3] (Homo sapiens, NHDF), the IC50 was more than 25 µM.
Taken in the same sequence, the figures for `O=C(Nc1cc(Br)ccc1F)c1ccc2ccccc2c1O` [4t] were 174 to 177 °C, 11.9 ± 1.28 µM, 14 ± 2.2 µM and more than 25 µM.
Taken in the same sequence, the figures for `O=C(Nc1cc(C(F)(F)F)ccc1F)c1ccc2ccccc2c1O` [4u] were 190 to 192 °C, 10.1 ± 2.61 µM, 7.45 ± 1.74 µM and more than 25 µM.
With `O=C(Nc1ccc(Br)c(F)c1)c1ccc2ccccc2c1O` [4v], the melting point lay within 199 to 202 °C. In addition, in data set [1] (Homo sapiens, HCT-116), the IC50 came out at 10.9 ± 2.69 µM. Also, the “selectivity towards the p53 null cells (HCT116 p53^−/− vs wild type)” value in data set [2] is recorded as “not selective”. In addition, in data set [2] (Homo sapiens, HCT-116), the IC50 turned out to be 12.4 ± 1.11 µM. Moreover, the IC50 in data set [3] (Homo sapiens, NHDF) was more than 25 µM.
As for `O=C(Nc1cc(F)c(C(F)(F)F)cc1F)c1ccc2ccccc2c1O` [4z], the melting point fell in the range of 229 to 231 °C. In data set [1] (Homo sapiens, HCT-116), the IC50 is 4.22 ± 0.87 µM. Also, the IC50 in data set [2] (Homo sapiens, HCT-116) turned out to be 2.82 ± 0.77 µM. In data set [3] (Homo sapiens, NHDF), the IC50 turned out to be 18.4 ± 0.91 µM.
In the case of `O=C(Nc1cc(F)cc(C(F)(F)F)c1)c1ccc2ccccc2c1O` [4×], the melting point was in the range of 165 to 167 °C. In addition, in data set [1] (Homo sapiens, HCT-116), the IC50 amounted to 9.01 ± 0.45 µM. In addition, the IC50 in data set [2] (Homo sapiens, HCT-116) was more than 25 µM. In data set [3] (Homo sapiens, NHDF), the IC50 is 24.1 ± 2.02 µM.
For `O=C(Nc1ccc(F)cc1Cl)c1ccc2ccccc2c1O` [5m], the melting point was 162 to 166 °C. The IC50 in data set [1] (Homo sapiens, HCT-116) was determined as 7.57 ± 2.16 µM. The IC50 in data set [2] (Homo sapiens, HCT-116) came to 8.29 ± 2.92 µM. For the same compound, the IC50 in data set [3] (Homo sapiens, NHDF) was more than 25 µM.
Regarding `COc1ccc(Cl)c(NC(=O)c2ccc3ccccc3c2O)c1` [5p], the melting point was 159 to 161 °C. In addition, in data set [1] (Homo sapiens, HCT-116), the IC50 was 24.1 ± 2.58 µM. Besides, in data set [2] (Homo sapiens, HCT-116), the IC50 is 19.3 ± 2.09 µM. In data set [3] (Homo sapiens, NHDF), the IC50 was more than 25 µM.
Taken in the same sequence, the figures for `O=C(Nc1ccc(C(F)(F)F)cc1Br)c1ccc2ccccc2c1O` [6i] were 168 to 170 °C, 3.58 ± 1.25 µM, 2.19 ± 0.67 µM and 18.4 ± 1.23 µM.
`O=C(Nc1cc(F)ccc1Br)c1ccc2ccccc2c1O` [6j]: the melting point lay within 187 to 190 °C. The IC50 in data set [1] (Homo sapiens, HCT-116) stood at 7.78 ± 1.37 µM. Moreover, in data set [2] (Homo sapiens, HCT-116), the IC50 was found to be 5.83 ± 1.06 µM. For the same compound, the IC50 in data set [3] (Homo sapiens, NHDF) is more than 25 µM.
Taken in the same sequence, the figures for `O=C(Nc1c(Br)cc(C(F)(F)F)cc1Br)c1ccc2ccccc2c1O` [6l] were 183 to 186 °C, 9.37 ± 0.47 µM, 6.81 ± 2.66 µM and 20.4 ± 1.16 µM.
As to `O=C(Nc1ccc(F)c(C(F)(F)F)c1)c1ccc2ccccc2c1O` [7m], the melting point is 164 to 166 °C. In data set [1] (Homo sapiens, HCT-116), the IC50 was 12 ± 3.68 µM. In addition, in data set [2] (Homo sapiens, HCT-116), the IC50 was found to be 14.5 ± 4.53 µM. Besides, in data set [3] (Homo sapiens, NHDF), the IC50 was more than 25 µM.
As to `O=C(Nc1ccc(Cl)c(C(F)(F)F)c1)c1ccc2ccccc2c1O` [7n], the melting point was 173 to 175 °C. For the same compound, in data set [1] (Homo sapiens, HCT-116), the IC50 was 9.66 ± 3.17 µM. The IC50 in data set [2] (Homo sapiens, HCT-116) came out at 18.7 ± 2.78 µM. In addition, in data set [3] (Homo sapiens, NHDF), the IC50 was more than 25 µM.
Taken in the same sequence, the figures for `O=C(Nc1ccc(Br)c(C(F)(F)F)c1)c1ccc2ccccc2c1O` [7o] were 172 to 173 °C, more than 25 µM, 13.9 ± 3.75 µM and more than 25 µM.
In the case of `COc1ccc(/C=C/c2nc(NCCCN(C)C)c3ccccc3n2)cc1` [CP-31398, reference compound], the values for the IC50 in data set [1], in data set [2] and in data set [3] were 18.6 ± 0.92 µM, 26.3 ± 1.41 µM and 12.3 ± 0.54 µM, respectively. In addition, in data set [4] (bound to CT-DNA (18 µM), 1.5 h 37 °C, Tris-HCl pH 7.9), the Changes in absorbance entry is listed as “hypochromism”. The figures for the “% hypochromism” value in data set [4] (setting [5]) and in data set [4] (second value (350 nm band)) were 41.4% and 37.4%, respectively. In addition, the figures for the Δε in data set [4] (setting [5]) and in data set [4] (second value (350 nm band)) were 1515.6 M⁻¹ cm⁻¹ and 1693.3 M⁻¹ cm⁻¹, respectively. The red shift in data set [4] (wavelengths of maximum absorption, individual vs DNA-bound compound) came to 0 nm.
